Data from article PMC7855930, “Nontoxic Cobalt(III) Schiff Base Complexes with Broad‐Spectrum Antifungal Activity” (Chemistry (Weinheim an Der Bergstrasse, Germany), 2020).
Converted amounts (≈) assume the structure as drawn. Where two headings read alike, the source gives them in different places. Starred links: 1 amine or outer side, 2 acyl side, 3 side chain; linkers in the order of their positions; H or OH if unused. Positions of bridges follow the written chain, without caps; N, C: chain ends. Non-standard residues stand in square brackets, D forms with d. Residues, ends and D or L forms follow the SMILES beside them. *: point of attachment. hTyr(3S-OH,4S-OH,3'-OSO3H) = N[C@H](C(=O)O)[C@H](O)[C@@H](O)c1ccc(O)c(OS(=O)(=O)O)c1; Orn(4R-OH,5R-OH) = O=C([C@H](C[C@@H](O)[C@@H](O)N[*:3])N[*:1])[*:2]; Pro(3S-OH,4S-Me) = C[C@H]1CN[C@H](C(=O)O)[C@H]1O; X1 = CCCCCOc1ccc(-c2cc(-c3ccc(C(=O)*)cc3)no2)cc1; Gln(3R-OH) = NC(=O)C[C@@H](O)[C@H](N)C(=O)O; Hyp = O=C(O)[C@@H]1C[C@@H](O)CN1

What was measured:
[1] = test system: Staphylococcus aureus ATCC 43300 (MRSA); assay: CO-ADD bacterial broth microdilution MIC assay; format: cell-based; details: Staphylococcus aureus, 18 h, read-out: MIC Sa (Staphylococcus aureus ATCC 43300, MRSA)
Method: (§1) CO-ADD High Throughput Screening
(§2) Bacterial broth microdilution minimum inhibitory concentration (MIC) assay Bacterial strains were cultured in Cation-adjusted Mueller Hinton broth (CAMHB; Bacto Laboratories 212322) at 37 °C overnight. A sample of each culture was then diluted 40-fold in fresh CAMHB and incubated at 37 °C for 1.5-3 h. The resultant mid-log phase cultures were diluted with CAMHB (CFU/mL measured by OD600), then added to each well of the compound-containing plates (384-well non-binding surface (NBS) plates; Corning CLS3640), giving a cell density of 5 × 10^5 CFU/mL and a total volume of 50 µL. Plates were covered and incubated at 37 °C for 18 h without shaking. Inhibition of bacterial growth was determined measuring absorbance at 600 nm (OD600), using media only as negative control and bacteria without inhibitors as positive control. MIC values were determined as the lowest concentration at which the growth was inhibited at ≥ 80%. Colistin sulfate (Sigma C4461) and vancomycin HCl (Sigma 861987) were used as positive inhibitor controls on each plate for Gram-negative and Gram-positive bacteria, respectively.
(§3) Figure S1. 1H NMR (400 MHz) of [Co(ATS)(DMAP)2]NO3 (3) in DMSO-d6.
(§4) (1 picture or pasted object on this page, not shown here)

C. albicans ATCC 90028 = assay: Antifungal MIC assay (broth microdilution in YNB); format: cell-based, Candida albicans; details: Candida albicans
Description: (§5) Yeast strains: Candida albicans (ATCC 90028, NCCLS 11), Cryptococcus neoformans (ATCC 208821, H99 type strain), Candida tropicalis (ATCC 750, type strain), Candida glabrata (ATCC 90030, NCCLS 84) and Cryptococcus deuterogattii (ATCC 32609, type strain) were obtained from the American Type Culture Collection (ATCC). Cryptococcus deuterogattii (CBS 7750), Candida auris (CBS 10913) and Candida auris (CBS 12373) were obtained from the CBS‐KNAW culture collection. The strains were maintained on glycerol/YPD (yeast extract‐peptone dextrose) broth (20:80 v/v) at −80 °C.
(§6) Antifungal minimum inhibitory concentration (MIC) assay: The cobalt complexes and antifungal control compounds were serially diluted in 50 μL of Yeast Nitrogen Broth (YNB; BD, Cat No. 233520 supplemented with 2 % glucose and 10 mM ammonium sulfate) two‐fold across the wells of non‐binding surface (NBS) 96‐well plates (Corning; Cat. No. 3641). Plates were set up in quadruplicate for each strain tested, and two biological replicates were conducted on separate assay days.
(§7) Yeast strains were cultured from glycerol onto YPD (Becton Dickinson 242720) agar at 30 °C for 72 h. For each strain, a minimum of five single colonies were taken from the agar plate and dissolved in sterile water and adjusted to form a yeast suspension of 1×10^6 to 5×10^6 CFU mL^−1 (as determined by OD530). The suspension was subsequently diluted into YNB media, and added to each well of the compound containing plates, giving a final cell density of 2.5×10^3 CFU mL^−1 and a total volume of 100 μL. Plates were covered and incubated at 35 °C for 36 h without shaking.
(§8) Growth inhibition of all strains was determined visually where the MIC was recorded as the lowest compound concentration with no visible growth. Fluconazole (Sigma F8929), ketoconazole (Sigma K1003) and micafungin (Sigma SML2288) were used as internal positive inhibitor controls for every strain tested.

C. tropicalis ATCC 750 = assay: Antifungal MIC assay (broth microdilution in YNB); format: cell-based, Candida tropicalis; details: Candida tropicalis
Description: as §5, §6, §7, §8

C. glabrata ATCC 90030 = assay: Antifungal MIC assay (broth microdilution in YNB); format: cell-based, Candida glabrata; details: Nakaseomyces glabratus
Description: as §5, §6, §7, §8

[2] = test system: C. neoformans ATCC 208821; assay: Antifungal MIC assay (broth microdilution in YNB); format: cell-based, Cryptococcus neoformans; details: Cryptococcus neoformans
Description: as §5, §6, §7, §8

C. auris CBS 10913 = assay: Antifungal MIC assay (broth microdilution in YNB); format: cell-based, Candida auris; details: Candidozyma auris
Description: as §5, §6, §7, §8

C. auris CBS 12373 = assay: Antifungal MIC assay (broth microdilution in YNB); format: cell-based, Candida auris; details: Candidozyma auris
Description: as §5, §6, §7, §8

[3] = test system: C. deuterogattii CBS 7750; assay: Antifungal MIC assay (broth microdilution in YNB); format: cell-based, Cryptococcus deuterogattii; details: Cryptococcus deuterogattii
Description: as §5, §6, §7, §8

[4] = test system: C. deuterogattii ATCC 32609; assay: Antifungal MIC assay (broth microdilution in YNB); format: cell-based, Cryptococcus deuterogattii; details: Cryptococcus deuterogattii
Description: as §5, §6, §7, §8

[5] = test system: Klebsiella pneumoniae ATCC 700603 (K6; ESBL SHV-18); format: cell-based; details: CAMHB, 37 °C, 18 h, ≥ 80% inhibition
Method: as §1, §2, §3, §4

[6] = test system: Acinetobacter baumannii ATCC 19606; assay: CO-ADD bacterial broth microdilution MIC assay; format: cell-based; details: CAMHB, 37 °C, 18 h, ≥ 80% inhibition
Method: as §1, §2, §3, §4

[7] = test system: Pseudomonas aeruginosa ATCC 27853; assay: CO-ADD bacterial broth microdilution MIC assay; format: cell-based; details: CAMHB, 37 °C, 18 h, ≥ 80% inhibition
Method: as §1, §2, §3, §4

[8] = test system: Escherichia coli ATCC 25922; assay: CO-ADD bacterial broth microdilution MIC assay; format: cell-based; details: CAMHB, 37 °C, 18 h, ≥ 80% inhibition
Method: as §1, §2, §3, §4

[9] = ATCC90028, Table S1, read-out: MIC Candida albicans ATCC 90028
[10] = ATCC90028, range of MICs, n=8, 35 °C, 36 h, visual, read-out: MIC C. albicans ATCC 90028
[11] = ATCC750, Table S1, read-out: MIC Candida tropicalis ATCC 750
[12] = ATCC750, range of MICs, n=8, 35 °C, 36 h, visual, read-out: MIC C. tropicalis ATCC 750
[13] = ATCC90030, Table S1, read-out: MIC Candida glabrata ATCC 90030
[14] = ATCC90030, range of MICs, n=8, 35 °C, 36 h, visual, read-out: MIC C. glabrata ATCC 90030
[15] = ATCC208821, Table S1, read-out: MIC Cryptococcus neoformans ATCC 208821
[16] = ATCC208821, range of MICs, n=8, 35 °C, 36 h, visual, read-out: MIC C. neoformans ATCC 208821
[17] = CBS10913, Table S1, read-out: MIC Candida auris CBS 10913
[18] = CBS10913, range of MICs, n=8, 35 °C, 36 h, visual, read-out: MIC C. auris CBS 10913
[19] = CBS12373, Table S1, read-out: MIC Candida auris CBS 12373
[20] = CBS12373, range of MICs, n=8, 35 °C, 36 h, visual, read-out: MIC C. auris CBS 12373
[21] = CBS7750, Table S1, read-out: MIC Cryptococcus deuterogattii CBS 7750
[22] = CBS7750, range of MICs, n=8, 35 °C, 36 h, visual, read-out: MIC C. deuterogattii CBS 7750
[23] = ATCC32609, Table S1, read-out: MIC Cryptococcus deuterogattii ATCC 32609
[24] = ATCC32609, range of MICs, n=8, 35 °C, 36 h, visual, read-out: MIC C. deuterogattii ATCC 32609

Row | MIC (C. albicans ATCC 90028; [9]) [µg/mL] | MIC (C. albicans ATCC 90028; [10]) [µM] | MIC (C. tropicalis ATCC 750; [11]) [µg/mL] | MIC (C. tropicalis ATCC 750; [12]) [µM] | MIC (C. glabrata ATCC 90030; [13]) [µg/mL] | MIC (C. glabrata ATCC 90030; [14]) [µM] | MIC [2, 15] [µg/mL] | MIC [2, 16] [µM] | MIC (C. auris CBS 10913; [17]) [µg/mL] | MIC (C. auris CBS 10913; [18]) [µM] | MIC (C. auris CBS 12373; [19]) [µg/mL] | MIC (C. auris CBS 12373; [20]) [µM] | MIC [3, 21] [µg/mL] | MIC [3, 22] [µM] | MIC [4, 23] [µg/mL] | MIC [4, 24] [µM] | Compound | further results
1 |  |  |  |  |  |  |  |  |  |  |  |  |  |  |  |  | CN[C@H](CC(C)C)C(=O)N[C@H]1C(=O)N[C@@H](CC(N)=O)C(=O)N[C@H]2C(=O)N[C@H]3C(=O)N[C@H](C(=O)N[C@H](C(=O)O)c4cc(O)cc(O)c4-c4cc3ccc4O)[C@H](O)c3ccc(c(Cl)c3)Oc3cc2cc(c3O[C@@H]2O[C@H](CO)[C@@H](O)[C@H](O)[C@H]2O[C@H]2C[C@](C)(N)[C@H](O)[C@H](C)O2)Oc2ccc(cc2Cl)[C@H]1O [Van, Vancomycin, reference compound] | MIC [1]: 1 µg/mL (≈ 0.69 µM)
2 | 2 | 6.53 | > 64 | > 209 | > 64 | > 209 | 16 | 52.2 | 16 | 52.2 | > 64 | > 209 | 8 | 26.1 | 8 to 16 | 26.1 to 52.2 | OC(Cn1cncn1)(Cn1cncn1)c1ccc(F)cc1F [FCZ, Fluconazole, reference compound] | 
3 |  |  |  |  |  |  |  |  |  |  |  |  |  |  |  |  | CCCCCOc1ccc(-c2cc(-c3ccc(C(=O)N[C@H]4C[C@@H](O)[C@@H](O)NC(=O)[C@@H]5[C@@H](O)[C@@H](C)CN5C(=O)[C@H]([C@H](O)CC(N)=O)NC(=O)[C@H]([C@H](O)[C@@H](O)c5ccc(O)c(OS(=O)(=O)O)c5)NC(=O)[C@@H]5C[C@@H](O)CN5C(=O)[C@H]([C@@H](C)O)NC4=O)cc3)no2)cc1 [MFG, Micafungin, reference compound] (X1-[Orn(4R-OH,5R-OH)]T[Hyp][hTyr(3S-OH,4S-OH,3'-OSO3H)][Gln(3R-OH)][Pro(3S-OH,4S-Me)]; lactam 1-C) | MIC (C. albicans ATCC 90028; ATCC90028, 36 h, read-out: MIC C. albicans ATCC 90028): ≤ 0.39 µM; MIC (C. albicans ATCC 90028; ATCC90028, read-out: MIC Candida albicans ATCC 90028): 0.5 µg/mL; MIC (C. tropicalis ATCC 750; ATCC750, 36 h, read-out: MIC C. tropicalis ATCC 750): ≤ 0.39 µM; MIC (C. tropicalis ATCC 750; ATCC750, read-out: MIC Candida tropicalis ATCC 750): 0.5 µg/mL; MIC (C. glabrata ATCC 90030; ATCC90030, 36 h, read-out: MIC C. glabrata ATCC 90030): ≤ 0.39 µM; MIC (C. glabrata ATCC 90030; ATCC90030, read-out: MIC Candida glabrata ATCC 90030): 0.5 µg/mL; MIC ([2]; ATCC208821, 36 h, read-out: MIC C. neoformans ATCC 208821): > 49.5 µM; MIC ([2]; ATCC208821, read-out: MIC Cryptococcus neoformans ATCC 208821): > 64 µg/mL; MIC (C. auris CBS 10913; CBS10913, 36 h, read-out: MIC C. auris CBS 10913): ≤ 0.39 µM; MIC (C. auris CBS 12373; CBS12373, 36 h, read-out: MIC C. auris CBS 12373): ≤ 0.39 µM; MIC (C. auris CBS 12373; CBS12373, read-out: MIC Candida auris CBS 12373): 0.5 µg/mL; MIC ([3]; CBS7750, 36 h, read-out: MIC C. deuterogattii CBS 7750): > 49.5 µM; MIC ([3]; CBS7750, read-out: MIC Cryptococcus deuterogattii CBS 7750): > 64 µg/mL; MIC ([4]; ATCC32609, 36 h, read-out: MIC C. deuterogattii ATCC 32609): > 49.5 µM; MIC ([4]; ATCC32609, read-out: MIC Cryptococcus deuterogattii ATCC 32609): > 64 µg/mL
4 |  |  |  |  |  |  |  |  |  |  |  |  |  |  |  |  | Colistin [reference compound] | MIC Kp (Klebsiella pneumoniae ATCC 700603) [5]: 0.25 µg/mL; MIC Ab (Acinetobacter baumannii ATCC 19606) [6]: 0.25 µg/mL; MIC Pa (Pseudomonas aeruginosa ATCC 27853) [7]: 0.25 µg/mL; MIC Ec (Escherichia coli ATCC 25922) [8]: 0.125 µg/mL
5 | 0.5 | ≤ 0.94 | 16 | 30.1 | 32 | 60.2 | 1 to 2 | 1.88 to 3.76 | 0.5 | ≤ 0.94 | 2 | 3.76 | 0.5 to 1 | 0.94 to 1.88 | 1 | 1.88 | CC(=O)N1CCN(c2ccc(OCC3COC(Cn4ccnc4)(c4ccc(Cl)cc4Cl)O3)cc2)CC1 (stereo not shown) [KCZ, Ketoconazole, reference compound] | 
